Reference: patent US9492468B2, “Methods and compositions for treatment of acute heart failure” (PERICOR THERAPEUTICS, INC., priority 2008, dated 2016)

Target: T1, NBTI-sensitive adenosine transporter (Homo sapiens, UniProt Q99808)
T1 sequence (Q99808 1-456): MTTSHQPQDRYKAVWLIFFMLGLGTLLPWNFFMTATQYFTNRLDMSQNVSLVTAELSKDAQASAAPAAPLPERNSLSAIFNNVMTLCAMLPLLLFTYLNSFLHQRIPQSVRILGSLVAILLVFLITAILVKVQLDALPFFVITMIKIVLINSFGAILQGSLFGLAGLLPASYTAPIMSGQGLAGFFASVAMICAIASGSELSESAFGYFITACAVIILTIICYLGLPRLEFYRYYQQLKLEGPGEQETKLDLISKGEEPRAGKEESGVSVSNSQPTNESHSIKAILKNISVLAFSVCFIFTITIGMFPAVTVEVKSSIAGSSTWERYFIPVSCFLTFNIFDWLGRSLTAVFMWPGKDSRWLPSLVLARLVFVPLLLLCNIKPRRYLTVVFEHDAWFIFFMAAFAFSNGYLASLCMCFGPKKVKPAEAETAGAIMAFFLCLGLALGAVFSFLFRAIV
Assay: Ligand status at adenosine transporter
Type: binding

With `NC(=O)c1ncn(C2OC(CNCc3ccccc3)C(O)C2O)c1N` [GP-531, 5-amino-1-β-D-(5-benzylamino-5-deoxy-1-β-D-ribofuranosyl)imidazole-4 carboxamide] the “Ligand for NBTI-sensitive adenosine transporter” value was “has not been shown to be a ligand”.
